Tests used:
Calreticulin = Calreticulin release (ER to plasma membrane translocation) screen, Nano-Glo HiBiT extracellular detection; assay type: cell-based; settings: Homo sapiens, MDA-MB-231, MDA-MB-231 cells stably expressing Calreticulin-HiBiT; extracellular luminescence; read-out: CalR EC50
HMGB1 = HMGB1 release screen, Nano-Glo HiBiT extracellular detection; assay type: cell-based; settings: Homo sapiens, MDA-MB-231, MDA-MB-231 cells stably expressing HMGB1-HiBiT; extracellular luminescence

Row | SMILES | EC50 (Calreticulin) [nM] | melting point [°C] | EC50 (HMGB1) [µM]
1 | COc1ccc2nc(CN3CC(C(C)C)c4ccccc43)[nH]c(=O)c2c1 (stereo not drawn) [Ex. #6, 2-[(3-isopropylindolin-1-yl)methyl]-6-methoxy-3H-quinazolin-4-one] | 254 | 192 to 208 | 0.217
2 | COc1ccc2nc(CN3CCCc4cccc(F)c43)[nH]c(=O)c2c1 [Ex. #11, 2-[(8-fluoro-3,4-dihydro-2H-quinolin-1-yl)methyl]-6-methoxy-3H-quinazolin-4-one] | 102 | 222 to 236 | 0.109
3 | COc1cc2c(=O)[nH]c(CN3CC(C)(C)c4ccccc43)nc2cn1 [Ex. #79, 2-[(3,3-dimethylindolin-1-yl)methyl]-6-methoxy-3H-pyrido[3,4-d]pyrimidin-4-one] | 796 | 145 to 167 | 0.801
4 | O=c1[nH]c(CN2CCc3ccccc32)nc2ccc(F)cc12 [Ex. #88, 6-fluoro-2-(indolin-1-ylmethyl)-3H-quinazolin-4-one] | 7560 | 184 to 196 | 4.66
5 | COc1ccc2nc(CN3CCc4cccc(F)c43)[nH]c(=O)c2c1 [Ex. #8, 2-[(7-fluoroindolin-1-yl)methyl]-6-methoxy-3H-quinazolin-4-one] | 5660 | 208 to 227 | 8.36
6 | COCCCOc1ccc2nc(CN3CC(C)(C)c4ccccc43)[nH]c(=O)c2c1 [Ex. #96, 2-[(3,3-dimethylindolin-1-yl)methyl]-6-(3-methoxypropoxy)-3H-quinazolin-4-one] | 9860 | 155 to 165 | 10.6
7 | COc1ccc2nc(CN3CC(CO)c4ccccc43)[nH]c(=O)c2c1 (stereo not drawn) [Ex. #9, 2-[[3-(hydroxymethyl)indolin-1-yl]methyl]-6-methoxy-3H-quinazolin-4-one] | 12800 | 190 to 209 | 11.7
8 | CC1CN(Cc2nc3ccc(Cl)cc3c(=O)[nH]2)c2ccccc21 (stereo not drawn) [Ex. #37, 6-chloro-2-[(3-methylindolin-1-yl)methyl]-3H-quinazolin-4-one] | 1160 | 200 to 223 | 3.16
9 | COc1cc2c(=O)[nH]c(CN3CC(C)(C)c4ccccc43)nc2cc1F [Ex. #77, 2-[(3,3-dimethylindolin-1-yl)methyl]-7-fluoro-6-methoxy-3H-quinazolin-4-one] | 150 | 194 to 209 | 0.15
10 | COc1cccc2c1CCN(Cc1nc3ccc(Cl)cc3c(=O)[nH]1)C2 [Ex. #58, 6-chloro-2-[(5-methoxy-3,4-dihydro-1H-isoquinolin-2-yl)methyl]-3H-quinazolin-4-one] | 524 | 205 to 212 | 4.81
11 | CC(C)c1ccc2nc(CN3CCc4ccccc43)[nH]c(=O)c2c1 [Ex. #81, 2-(indolin-1-ylmethyl)-6-isopropyl-3H-quinazolin-4-one] | 80 | 168 to 185 | 0.41
12 | COc1cccc2c1CN(Cc1nc3ccc(Cl)cc3c(=O)[nH]1)CC2 [Ex. #130, 6-chloro-2-[(8-methoxy-3,4-dihydro-1H-isoquinolin-2-yl)methyl]-3H-quinazolin-4-one] | 9060 | 195 to 203 | 15.1
13 | COc1ccc2nc(CN3CCc4c(N)cccc4C3)[nH]c(=O)c2c1 [Ex. #133, 2-[(5-amino-3,4-dihydro-1H-isoquinolin-2-yl)methyl]-6-methoxy-3H-quinazolin-4-one] | 8160 | 211 to 233 | 14
14 | CC1(C)CN(Cc2nc3ccc(Cl)cc3c(=O)[nH]2)c2ccccc21 [Ex. #40, 6-chloro-2-[(3,3-dimethylindolin-1-yl)methyl]-3H-quinazolin-4-one] | 941 | 163 to 176 | 1.26
15 | COc1ccc2nc(CN3CCc4ccccc4C3)[nH]c(=O)c2c1 [Ex. #122, 2-(3,4-dihydro-1H-isoquinolin-2-ylmethyl)-6-methoxy-3H-quinazolin-4-one] | 1660 | 174 to 179 | 12.7
16 | COc1ccc2nc(CN3CCCc4cccc(OC)c43)[nH]c(=O)c2c1 [Ex. #13, 6-methoxy-2-[(8-methoxy-3,4-dihydro-2H-quinolin-1-yl)methyl]-3H-quinazolin-4-one] | 1140 | 169 to 183 | 0.752
17 | COc1cc2c(=O)[nH]c(CN3CCc4ccccc43)nc2cn1 [Ex. #78, 2-(indolin-1-ylmethyl)-6-methoxy-3H-pyrido[3,4-d]pyrimidin-4-one] | 2450 | 215 to 230 | 3.25
18 | COc1ccc2nc(CN3CCc4c(cccc4C(F)(F)F)C3)[nH]c(=O)c2c1 [Ex. #125, 6-methoxy-2-[[5-(trifluoromethyl)-3,4-dihydro-1H-isoquinolin-2-yl]methyl]-3H-quinazolin-4-one] | 9760 | 196 to 206 | 15.9
19 | COc1ccc2nc(CN3CCc4c(cccc4OC)C3)[nH]c(=O)c2c1 [Ex. #17, 6-methoxy-2-[(5-methoxy-3,4-dihydro-1H-isoquinolin-2-yl)methyl]-3H-quinazolin-4-one] | 540 | 204 to 218 | 6.06
20 | COc1ccc2nc(CN3CCc4c(C#N)cccc4C3)[nH]c(=O)c2c1 [Ex. #16, 2-[(6-methoxy-4-oxo-3H-quinazolin-2-yl)methyl]-3,4-dihydro-1H-isoquinoline-5-carbonitrile] | 490 | 197 to 218 | 2.66
21 | COc1cccc2c1N(Cc1nc3ccc(Cl)cc3c(=O)[nH]1)CCC2 [Ex. #54, 6-chloro-2-[(8-methoxy-3,4-dihydro-2H-quinolin-1-yl)methyl]-3H-quinazolin-4-one] | 1760 | 183 to 194 | 3.06
22 | COc1ccc2nc(CN3CCCCc4ccccc43)[nH]c(=O)c2c1 [Ex. 22, 6-methoxy-2-(2,3,4,5-tetrahydro-1-benzazepin-1-ylmethyl)-3H-quinazolin-4-one] | 339 | 191 to 206 | 0.429

From patent US20230150978A1, “QUINAZOLINONE DERIVATIVES AND USES THEREOF FOR TREATING A CANCER” (ENYO PHARMA, priority 2020, published 2023)
